# Key:
# [1] = test system: MDA-MB-231 cells; assay: MTT-based cell proliferation assay, single drugs and combinations (CI by CalcuSyn)
# Method: (§1) All cell lines were cultured at 37° C. in a humidified atmosphere in the presence of a mixture of 5% CO2 and 95% air. Cells were grown in DMEM or in RPMI medium containing high glucose concentration (4,500 mg/liter) and antibiotics (penicillin at 100 mU/ml, streptomycin at 100 μg/ml) and supplemented with 10% FBS. Cell lines were provided by Drs. J. Losada and A. Balmain, (originally from Dr. J. W. Gray's Laboratory who in turn obtained them from the ATCC or from collections development in the laboratories of Drs. S. Ethier and A. Gazdar, to avoid errors occurring when obtained through “second-hand” sources) [Cancer Cell. (2006) 10:515-527]. Cell identities were verified by STR analyses [Oncogene (2014) 33:148-156].
# (§2) Cells were plated in 24-well plates at 10,000-20,000 cells/well and cultured overnight in DMEM or RPMI+10% FBS. […] Cell proliferation was analyzed 48 and 72 hours later by an MTT-based assay as described in Cancer Res. (2005) 65:6801-6810.
# (§3) Results are plotted as the mean±SD values of quadruplicates from two experiments.
# (§4) To explore whether F(I) potentiated the action of drugs used in the therapy of TNBC, drug combination experiments were performed, and the results analyzed by the Chou and Talalay algorithm [Adv. Enzyme Regul.
# [2] = test system: HBL-100 cells; assay: as above
# Method: as §1, §2, §3, §4
# [3] = test system: MDA-MB-231 xenografted tumors; assay: Xenograft study, tumour volume; format: in vivo, mice; conditions: F(I) 12 mg/kg intravenously every 3 days; FIG. 2
# Method: Mice were manipulated at the animal facility of the CIC in Salamanca following legal guidelines. Female BALB/c nu/nu mice (7 weeks old) were obtained from Charles River Laboratories (Wilmington, Mass., USA). A total of 5×10^6 MDA-MB231 cells in 100 μL of DMEM and 100 μL of Matrigel (BD Biosciences) were injected subcutaneously into the right and left flank of each mouse. When tumours reached a mean volume of 100 mm^3, animals (n=32) were randomized into four groups (with equal average tumour volumes) (vehicle n=8, F(I) n=8, docetaxel n=8, and F(I)+docetaxel n=8). […] Tumour diameters were serially measured by callipers twice per week and tumour volumes were calculated by the following formula: volume=width^2×length/2. Mice were sacrificed on day 41. For biochemical and drug accumulation analyses, tumor samples were obtained after sacrifice of the animals by CO2 inhalation, and 6 hours after being treated with the different drugs, and immediately frozen in liquid nitrogen. The tumors were minced, washed with PBS, and homogenized (Dispomix, L&M Biotech, Holly Springs, N.C., USA) in ice-cold lysis buffer (1.5 mL/100 mg tumor). […]
# Comparisons of continuous variables between two groups for the mice tumor model experiments were performed using a two-sided Student's t-test. […] All data were analyzed using the statistical software SPSS 21.0 (SPSS Inc., Chicago, Ill.). […]
# [4] = Body weight of treated mice; format: in vivo
# Method: (§5) Mice were manipulated at the animal facility of the CIC in Salamanca following legal guidelines. Female BALB/c nu/nu mice (7 weeks old) were obtained from Charles River Laboratories (Wilmington, Mass., USA). A total of 5×10^6 MDA-MB231 cells in 100 μL of DMEM and 100 μL of Matrigel (BD Biosciences) were injected subcutaneously into the right and left flank of each mouse. When tumours reached a mean volume of 100 mm^3, animals (n=32) were randomized into four groups (with equal average tumour volumes) (vehicle n=8, F(I) n=8, docetaxel n=8, and F(I)+docetaxel n=8). Mice were treated every four days intravenously with 12 mg/kg of F(I), and weekly, intraperitoneally with docetaxel 15 mg/kg. Tumour diameters were serially measured by callipers twice per week and tumour volumes were calculated by the following formula: volume=width^2×length/2. Mice were sacrificed on day 41. For biochemical and drug accumulation analyses, tumor samples were obtained after sacrifice of the animals by CO2 inhalation, and 6 hours after being treated with the different drugs, and immediately frozen in liquid nitrogen. The tumors were minced, washed with PBS, and homogenized (Dispomix, L&M Biotech, Holly Springs, N.C., USA) in ice-cold lysis buffer (1.5 mL/100 mg tumor). This homogenate was centrifuged at 10,000×g for 20 minutes at 4° C., and the supernatants were transferred to new tubes. […]
# [5] = F(I) concentration in the tumors; format: in vivo; conditions: 6 hours after the last treatment, F(I) 12 mg/kg intravenously, two tumors from two different mice
# Method: as §5
# [6] = test system: TNBC cell lines (HCC-70, HCC-3153, BT549, MDA-MB-231, HCC-1937, HBL-100, HCC-1187 and HS578T); assay: MTT metabolism in panel of TNBC cell lines; format: cell-based
# Method: as §1
# Cells were plated in 24-well plates at 10,000-20,000 cells/well and cultured overnight in DMEM or RPMI+10% FBS. The next day medium was replaced with DMEM or RPMI containing different concentrations of F(I). Cell proliferation was analyzed 48 and 72 hours later by an MTT-based assay as described in Cancer Res. (2005) 65:6801-6810. […]
# To analyze the potential antineoplastic effect of F(I) on TNBC, its action on a panel of eight representative TNBC cell lines (HCC-70, HCC-3153, BT549, MDA-MB-231 (MDAMB231), HCC-1937, HBL-100 (HBL100), HCC-1187 and HS578T) using MTT metabolism as readout of the effect of F(I) on cell number was evaluated. […]
# [7] = cited from earlier work
smiles,measurement,setting,value
"CCC1=C[C@@H]2CN(C1)Cc1c([nH]c3ccccc13)[C@@](C(=O)OC)(c1cc3c(cc1OC)N(C)[C@H]1[C@@](O)(C(=O)OC)[C@H](OC(C)=O)[C@]4(CC)C=CCN5CC[C@]31[C@@H]54)C2 [Vinorelbine, vinorelbine]","MTT metabolism mean, Assay 1",[1]; Vinorelbine 1 nM alone,94.11%
same,"MTT metabolism mean, Assay 2",[1]; Vinorelbine 1 nM alone,73.02%
same,"MTT metabolism mean, Assay 1",[1]; Vinorelbine 3 nM alone,84.61%
same,"MTT metabolism mean, Assay 2",[1]; Vinorelbine 3 nM alone,71.99%
same,"MTT metabolism mean, Assay 1",[1]; Vinorelbine 5 nM alone,84.42%
same,"MTT metabolism mean, Assay 2",[1]; Vinorelbine 5 nM alone,56.42%
"Nc1ccn([C@@H]2O[C@H](CO)[C@@H](O)C2(F)F)c(=O)n1 [Gemcitabine, gemcitabine]","MTT metabolism mean, Assay 1",[1]; Gemcitabine 5 nM alone,77.29%
same,"MTT metabolism mean, Assay 2",[1]; Gemcitabine 5 nM alone,90.99%
same,"MTT metabolism mean, Assay 1",[1]; Gemcitabine 10 nM alone,67.76%
same,"MTT metabolism mean, Assay 2",[1]; Gemcitabine 10 nM alone,84.33%
same,"MTT metabolism mean, Assay 1",[1]; Gemcitabine 20 nM alone,48.14%
same,"MTT metabolism mean, Assay 2",[1]; Gemcitabine 20 nM alone,64.95%
same,"MTT metabolism mean, Assay 1",[2]; Gemcitabine 5 nM alone,90.75%
same,"MTT metabolism mean, Assay 2",[2]; Gemcitabine 5 nM alone,88.93%
same,"MTT metabolism mean, Assay 1",[2]; Gemcitabine 10 nM alone,85.93%
same,"MTT metabolism mean, Assay 2",[2]; Gemcitabine 10 nM alone,83.52%
same,"MTT metabolism mean, Assay 1",[2]; Gemcitabine 20 nM alone,61.98%
same,"MTT metabolism mean, Assay 2",[2]; Gemcitabine 20 nM alone,80.59%
"Cc1nc(Nc2ncc(C(=O)Nc3c(C)cccc3Cl)s2)cc(N2CCN(CCO)CC2)n1 [Dasatinib, dasatinib]","MTT metabolism mean, Assay 1",[1]; Dasatinib 0.5 μM alone,65.29%
same,"MTT metabolism mean, Assay 2",[1]; Dasatinib 0.5 μM alone,62.89%
same,"MTT metabolism mean, Assay 1",[1]; Dasatinib 1.0 μM alone,59.58%
same,"MTT metabolism mean, Assay 2",[1]; Dasatinib 1.0 μM alone,63.07%
same,"MTT metabolism mean, Assay 1",[1]; Dasatinib 2.0 μM alone,56.05%
same,"MTT metabolism mean, Assay 2",[1]; Dasatinib 2.0 μM alone,55.89%
same,"MTT metabolism mean, Assay 1",[2]; Dasatinib 0.5 μM alone,61.25%
same,"MTT metabolism mean, Assay 2",[2]; Dasatinib 0.5 μM alone,65.30%
same,"MTT metabolism mean, Assay 1",[2]; Dasatinib 1.0 μM alone,61.08%
same,"MTT metabolism mean, Assay 2",[2]; Dasatinib 1.0 μM alone,64.94%
same,"MTT metabolism mean, Assay 1",[2]; Dasatinib 2.0 μM alone,58.58%
same,"MTT metabolism mean, Assay 2",[2]; Dasatinib 2.0 μM alone,58.48%
"CO[C@@H]([C@@H]1Cc2cc3cc(O[C@H]4CC(O[C@H]5CC(O)[C@H](O)C(C)O5)[C@H](O)C(C)O4)c(C)c(O)c3c(O)c2C(=O)[C@H]1O[C@H]1CC(O[C@H]2CC(O[C@H]3CC(O)[C@H](O)C(C)O3)[C@@H](O)C(C)O2)[C@H](O)C(C)O1)[C@@H](O)C(C)=O (stereo partly drawn) [F(I), demycarosyl-3D-β-D-digitoxosyl-mithramycin SK]",Effect on tumor growth,[3],inhibitory effect on tumor growth
same,Body weight,"[4]; F(I) 12 mg/kg, FIG. 3",slight decrease initially
same,Tolerability,"[4]; alone or in combination, suggested by body weights, FIG. 6",well tolerated
same,F(I) concentration in the tumors,[5],2.2 µg/g
same,concentration at 6 h,"[5]; female, BALB/c nu/nu, mouse, tumor, iv, 12 mg/kg",3800 ng/g
same,IC50,"[6]; 72 hours of treatment, all cell lines (FIG. 1)",< 100 nM
same,Effect on MTT metabolism,"[6]; all the TNBC cell lines studied, 48 or 72 hours, different doses",decreased MTT metabolism of all the TNBC cell lines studied in a dose-dependent and time-dependent manner
same,Toxicity in vivo relative to mithramycin (times less toxic),[7],10 times
same,"MTT metabolism mean, Assay 1",[1]; F(I) 10 nM alone,94.27%
same,"MTT metabolism mean, Assay 2",[1]; F(I) 10 nM alone,96.65%
same,"MTT metabolism mean, Assay 1",[1]; F(I) 50 nM alone,70.05%
same,"MTT metabolism mean, Assay 2",[1]; F(I) 50 nM alone,59.26%
same,"MTT metabolism mean, Assay 1",[2]; F(I) 10 nM alone,85.52%
same,"MTT metabolism mean, Assay 2",[2]; F(I) 10 nM alone,99.53%
same,"MTT metabolism mean, Assay 1",[2]; F(I) 50 nM alone,66.35%
same,"MTT metabolism mean, Assay 2",[2]; F(I) 50 nM alone,62.85%
"CC(=O)O[C@@]12CO[C@@H]1C[C@H](O)[C@@]1(C)C(=O)[C@H](O)C3=C(C)[C@@H](OC(=O)[C@H](O)[C@@H](NC(=O)OC(C)(C)C)c4ccccc4)C[C@@](O)([C@@H](OC(=O)c4ccccc4)[C@H]21)C3(C)C [Docetaxel, docetaxel]","MTT metabolism mean, Assay 1",[1]; Docetaxel 2.5 nM alone,84.46%
same,"MTT metabolism mean, Assay 2",[1]; Docetaxel 2.5 nM alone,60.92%
same,"MTT metabolism mean, Assay 1",[1]; Docetaxel 5 nM alone,69.03%
same,"MTT metabolism mean, Assay 2",[1]; Docetaxel 5 nM alone,51.36%
same,"MTT metabolism mean, Assay 1",[1]; Docetaxel 10 nM alone,38.17%
same,"MTT metabolism mean, Assay 2",[1]; Docetaxel 10 nM alone,44.50%
same,"MTT metabolism mean, Assay 1",[2]; Docetaxel 2.5 nM alone,96.93%
same,"MTT metabolism mean, Assay 2",[2]; Docetaxel 2.5 nM alone,83.41%
same,"MTT metabolism mean, Assay 1",[2]; Docetaxel 5 nM alone,85.11%
same,"MTT metabolism mean, Assay 2",[2]; Docetaxel 5 nM alone,70.61%
same,"MTT metabolism mean, Assay 1",[2]; Docetaxel 10 nM alone,55.03%
same,"MTT metabolism mean, Assay 2",[2]; Docetaxel 10 nM alone,54.59%

# — patent US10568899B2, “Combinations of a mithramycin analogue and another chemotherapeutic agent for the treatment of triple negative breast cancer” (ENTRECHEM, S.L., priority 2015, dated 2020)
